In ChEMBL document CHEMBL1135996, “Synthesis and biological evaluation of novel macrocyclic ligands with pendent donor groups as potential yttrium chelators for radioimmunotherapy with improved complex formation kinetics” (J Med Chem, 2002) one finds ID/g data, which are given here for 1 substance.

Holding throughout (assay type): ADME, organism-based
Holding throughout (details): in vivo

Data set [1] is filed under the species Mus musculus. Put plainly: Percent of blood clearance in bone of mice at 0.5 h.
The species named for data set [2] is Mus musculus. The data set can be described thus: Percent of blood clearance in bone of mice at 24 hr.
The species entered for data set [3] is Mus musculus. Put plainly: Percent of radioactivity that accumulated in kidney of mice at 24 h.

Turning to “1,4,7,10tetraaza-Cyclododecane-1,4,7,10-tetracarboxylic acid with yttrium”, the ID/g in data set [1] is on record as 1.47%; in data set [2], 0.05%; in data set [3], 0.54%.
